Each structure is given as a SMILES string.

This note sets out measurements from patent publication US12692257B2, “2,4,6-tri-substituted pyrimidine compounds as ATR kinase inhibitors” (BEIJING TIDE PHARMACEUTICAL CO., LTD., priority 2020, dated 2026).

Series [1] has as its system MV4-11 (leukemia). Nature of the series: Cell proliferation inhibition in vitro, CellTiter-Glo, MV4-11. Type of series: cell-based. To be noted: Homo sapiens; MV4-11 cells, 120 hours, CellTiter-Glo; read-out: MV4-11/IC50/μM. The method, then: (§1) By detecting the effect of compounds on cell activity in vitro in tumor cell lines TOV21G (ovarian cancer) and MV4-11 (leukemia), the inhibitory effect of compounds on cell proliferation was studied in this assay.
(§2) TOV21G cells and MV4-11 cells were purchased from American Type Culture Collection (ATCC).
MV-4-11 cells were cultured in IMDM medium (containing 20% of FBS). About 10,000 cells were inoculated in each well of a 96-well culture plate, and treated by adding different concentrations (0-10 μM) of compounds to be assayed. Each group was assayed in triplicate. Blank wells (containing medium only) and control wells (inoculated cells without being treated with drug) were set. Cells were cultured for 120 hours. 40 μL of Cell Titer-Glo solutions were added to each well, and the cells were incubated with shaking for 20 min in the dark. 100 μL of solution was transferred from each well to a 96-well blank plate, and the luminescence value was read by Biotek Synergy HI multifunctional microplate reader. Inhibition rate (%)=100%×(control well−assay well)/(control well−blank well)
In general terms: ATP-based viability assays read luminescence as a measure of living cells.

For series [2], the system named is TOV21G (ovarian cancer). The series can be described thus: Cell proliferation inhibition in vitro, CellTiter-Glo, TOV21G. Format: cell-based. As to conditions: Homo sapiens; TOV21G cells, 120 hours, CellTiter-Glo; read-out: TOV21G/IC50/μM. As to the method: as §1, §2
TOV21G cells were cultured in MCDB105/M199 medium (containing 15% of FBS), and used for assaying when the cell confluence reached 85% or more. About 1000 cells were inoculated in each well of a 96-well culture plate, and cultured for 24 hours. Different concentrations (0-10 μM) of compounds to be assayed were added to treat the cells. Each group was assayed in triplicate. Blank wells (containing medium only) and control wells (inoculated cells without being treated with drug) were set. Cells were cultured for 120 hours. 40 μL of Cell Titer-Glo solutions (Promega, #G7573) were added to each well, and the cells were incubated with shaking for 20 min in the dark. 100 μL of solution was transferred from each well to a 96-well blank plate (Corning, #3917), and the luminescence value was read by Biotek Synergy H1 multifunctional microplate reader.

Series [3] is described as follows: In vivo oral administration pharmacokinetics in mice. As to conditions: mouse. Further details: AUC: concentration or dose not given beside the values. The text has this: Based on the in vitro activity results, representative compounds were selected for in vivo pharmacokinetic studies.
In Vivo Oral Administration—Pharmacokinetic Results in Mice: […]

Series [4] addresses ATR kinase (Homo sapiens, UniProt Q13535). The series can be described thus: Assay of ATR kinase activity (time-resolved fluorescence, phosphorylation of p53-derived protein). Format: biochemical. The method, then:
Biotinylated protein derived from p53 (Eurofins, art. No.: 14-952) was phosphorylated with ATR kinase. The amount of phosphorylated protein was determined by time-resolved fluorescence in this assay. The amount of phosphorylated protein was detected by anti-p53-phospho-(serine 15)-K-specific antibody (Cisbio, art. No.: 61GSTDLA) and d2 labeled anti-GST antibody (Cisbio, art. No. 61P08KAE). Before the assay, the following working solutions were formulated as required: 1×reaction buffer (20 mM HEPES PH8.0, 1% glycerol, 0.01% Brij-35), dilution buffer (20 mM HEPES PH8.0, 1% glycerol, 0.01% Brij-35, 5 mM DTT and 1% BSA), stop solution (20 mM HEPES PH8.0, 1% glycerol, 0.01% Brij-35, 250 mM EDTA), detection buffer (50 mM HEPES pH7.0, 150 mM NaCl, 267 mM KF, 0.1% sodium cholate, 0.01% Tween-20, 0.0125% sodium azide). The reagents used above were purchased from Sigma or Invitrogen, except for those whose manufacturers were mentioned.
Operations were as follows:
4× serially diluted compound solutions were prepared with 1× reaction buffer to give 9 compound solutions with different concentrations, and 2.5 μL of the 4× serially diluted compound solutions were added to a 384-well analysis plate (784075, Greiner). 4×p53 substrate working solution (40 nM) was prepared with 1× reaction buffer, and 2.5 μL of the 4×p53 substrate working solution was added to a 384-well analysis plate. 4×ATR/ATRIP working solution (12.8 ng/μL) was prepared with dilution buffer, and 2.5 μL of the 4×pATR/ATRIP working solution was added to a 384-well analysis plate. 4×ATP working solution (2 mM) was prepared with deionized water, and 2.5 μL of the 4×ATP working solution was added to a 384-well analysis plate. The plates were incubated at room temperature in dark for 30 minutes. 5 μL of stop solution was added to the 384 analysis plates. Finally, 5 μL of assay mixture (0.084 ng/μL Anti-phospho-p53(ser15)-K and 5 ng/μL Anti-GST-d2) was added to the 384 well analysis plates, and incubated at room temperature overnight. The fluorescence signal was detected with ENVISION (Perkinelmer) instrument (excitation wavelength: 320 nm, emission wavelength: 665 nm and 615 nm). The inhibition rate in each well was calculated by the fluorescence intensity value in each well:ER (Emission Ratio)=(Fluorescence intensity at 665 nm/Fluorescence intensity at 615 nm); inhibition rate=(ER of positive−ER of assay compound)/(ER of positive−ER of negative)×100%. IC50 values of compounds were calculated by standard software for parameter fitting (GraphPad Prism 6.0).

Series [5] in a line: In vitro stability in mouse liver microsome. To be noted: liver microsomes, read-out: Mouse liver microsome t1/2. Format: in vitro ADME. The text has this: (§3) Based on the in vitro activity results, representative compounds were selected for assay studies on the stability in liver microsome, and the results were as follows.
(In general: Microsomes from liver hold many membrane-bound enzymes, among them those of drug oxidation.)

Series [6] can be described thus: In vitro stability in human liver microsome. Type of series: in vitro ADME. As to conditions: liver microsomes, read-out: Human liver microsome t1/2.
Text: as §3

In series [7] the target is mTOR (Homo sapiens, UniProt P42345). The series can be described thus: Kinase selectivity: inhibitory activity against mTOR. Type of series: biochemical. As to conditions: 10 concentrations, 10 μM to 0.51 nM. The method, then: (§4) The compound of the present disclosure was assayed for inhibition of the same family (ATM, DNA-PK and mTOR):
(§5) According to the assay method reported in the literature, the compound to be assayed was serially diluted 3-fold to 0.51 nM starting from 10 μM (a total of 10 concentrations), and assayed for the inhibitory activities against kinases ATM^1, DNA-PK^2 and mTOR^3, respectively.

The target in series [8] is ATM (Homo sapiens, UniProt Q13315). Nature of the series: Kinase selectivity: inhibitory activity against ATM. Type of series: biochemical. As to conditions: 10 concentrations, 10 μM to 0.51 nM. As to the method: as §4, §5
Series [9] has as its target DNA-PK (Homo sapiens, UniProt P78527). Nature of the series: Kinase selectivity: inhibitory activity against DNA-PK. Format: biochemical. To be noted: 10 concentrations, 10 μM to 0.51 nM; read-out: IC50/DNAPK. As to the method: as §4, §5

Chain of ATR kinase (Q13535 whole entry): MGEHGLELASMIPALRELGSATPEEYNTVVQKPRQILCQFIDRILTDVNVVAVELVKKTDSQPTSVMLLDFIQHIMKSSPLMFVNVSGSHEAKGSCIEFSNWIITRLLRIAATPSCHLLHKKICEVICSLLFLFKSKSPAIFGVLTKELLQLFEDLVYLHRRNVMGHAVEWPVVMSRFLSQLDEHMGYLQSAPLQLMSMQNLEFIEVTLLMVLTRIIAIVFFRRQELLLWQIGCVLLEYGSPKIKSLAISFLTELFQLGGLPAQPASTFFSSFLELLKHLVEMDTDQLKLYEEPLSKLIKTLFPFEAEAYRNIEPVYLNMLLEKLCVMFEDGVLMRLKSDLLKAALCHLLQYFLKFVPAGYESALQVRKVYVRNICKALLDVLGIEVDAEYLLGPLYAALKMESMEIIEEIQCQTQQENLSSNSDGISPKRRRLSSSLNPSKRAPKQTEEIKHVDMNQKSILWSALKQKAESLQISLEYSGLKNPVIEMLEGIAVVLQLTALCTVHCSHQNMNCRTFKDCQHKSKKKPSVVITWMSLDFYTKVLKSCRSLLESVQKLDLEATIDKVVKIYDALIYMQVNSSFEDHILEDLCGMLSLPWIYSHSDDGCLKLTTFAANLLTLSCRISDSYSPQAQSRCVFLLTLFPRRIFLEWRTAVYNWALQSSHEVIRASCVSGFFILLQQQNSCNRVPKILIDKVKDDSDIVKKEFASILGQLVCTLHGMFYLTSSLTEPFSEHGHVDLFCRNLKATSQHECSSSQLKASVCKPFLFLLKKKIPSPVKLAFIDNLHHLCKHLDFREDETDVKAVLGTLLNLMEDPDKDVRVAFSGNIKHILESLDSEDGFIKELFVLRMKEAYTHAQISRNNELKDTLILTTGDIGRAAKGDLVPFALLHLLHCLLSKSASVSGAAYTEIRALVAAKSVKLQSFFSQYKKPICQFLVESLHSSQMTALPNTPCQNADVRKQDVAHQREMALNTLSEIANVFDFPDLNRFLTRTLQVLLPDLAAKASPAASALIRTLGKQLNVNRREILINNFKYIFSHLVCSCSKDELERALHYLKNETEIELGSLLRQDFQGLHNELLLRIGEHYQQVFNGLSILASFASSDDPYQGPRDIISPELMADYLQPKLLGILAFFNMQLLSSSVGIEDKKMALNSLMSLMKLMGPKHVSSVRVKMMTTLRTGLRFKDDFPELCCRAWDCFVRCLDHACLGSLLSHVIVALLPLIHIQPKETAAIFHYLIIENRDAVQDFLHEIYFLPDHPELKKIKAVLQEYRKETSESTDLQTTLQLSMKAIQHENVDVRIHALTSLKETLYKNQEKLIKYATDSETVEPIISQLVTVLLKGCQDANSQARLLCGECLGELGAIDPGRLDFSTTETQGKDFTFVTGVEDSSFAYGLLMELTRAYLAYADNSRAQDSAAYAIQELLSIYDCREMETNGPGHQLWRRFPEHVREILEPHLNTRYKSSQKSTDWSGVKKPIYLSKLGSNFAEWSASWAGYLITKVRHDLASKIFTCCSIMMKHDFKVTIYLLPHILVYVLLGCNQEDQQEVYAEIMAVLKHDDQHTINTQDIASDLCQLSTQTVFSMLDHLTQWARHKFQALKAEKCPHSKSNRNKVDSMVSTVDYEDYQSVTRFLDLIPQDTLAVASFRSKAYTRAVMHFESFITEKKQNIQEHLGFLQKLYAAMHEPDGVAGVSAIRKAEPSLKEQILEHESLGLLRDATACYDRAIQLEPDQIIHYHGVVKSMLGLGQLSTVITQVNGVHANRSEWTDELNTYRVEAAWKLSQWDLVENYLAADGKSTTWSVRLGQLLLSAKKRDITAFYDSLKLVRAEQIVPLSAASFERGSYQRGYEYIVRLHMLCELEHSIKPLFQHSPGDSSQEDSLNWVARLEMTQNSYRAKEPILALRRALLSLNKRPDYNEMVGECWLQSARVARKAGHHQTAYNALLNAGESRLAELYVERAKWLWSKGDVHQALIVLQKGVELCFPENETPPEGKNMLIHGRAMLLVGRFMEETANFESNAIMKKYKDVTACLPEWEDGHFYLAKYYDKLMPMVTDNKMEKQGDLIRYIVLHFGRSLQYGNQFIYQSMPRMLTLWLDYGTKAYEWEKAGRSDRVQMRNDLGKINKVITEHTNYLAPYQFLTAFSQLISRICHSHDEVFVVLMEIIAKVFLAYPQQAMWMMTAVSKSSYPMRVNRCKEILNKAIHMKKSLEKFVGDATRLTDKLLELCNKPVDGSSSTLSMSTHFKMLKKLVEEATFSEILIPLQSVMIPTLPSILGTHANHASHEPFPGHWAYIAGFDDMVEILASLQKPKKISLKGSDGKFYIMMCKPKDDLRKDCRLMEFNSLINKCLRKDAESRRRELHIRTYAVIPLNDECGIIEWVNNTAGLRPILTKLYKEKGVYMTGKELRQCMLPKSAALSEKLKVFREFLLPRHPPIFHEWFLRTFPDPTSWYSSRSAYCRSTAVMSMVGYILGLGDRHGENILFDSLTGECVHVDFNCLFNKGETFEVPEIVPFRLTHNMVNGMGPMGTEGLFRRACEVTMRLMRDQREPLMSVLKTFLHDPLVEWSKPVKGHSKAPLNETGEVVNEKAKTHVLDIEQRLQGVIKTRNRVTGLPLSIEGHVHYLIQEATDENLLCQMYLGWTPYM
Chain of ATR kinase (Q8WXE1 whole entry partner): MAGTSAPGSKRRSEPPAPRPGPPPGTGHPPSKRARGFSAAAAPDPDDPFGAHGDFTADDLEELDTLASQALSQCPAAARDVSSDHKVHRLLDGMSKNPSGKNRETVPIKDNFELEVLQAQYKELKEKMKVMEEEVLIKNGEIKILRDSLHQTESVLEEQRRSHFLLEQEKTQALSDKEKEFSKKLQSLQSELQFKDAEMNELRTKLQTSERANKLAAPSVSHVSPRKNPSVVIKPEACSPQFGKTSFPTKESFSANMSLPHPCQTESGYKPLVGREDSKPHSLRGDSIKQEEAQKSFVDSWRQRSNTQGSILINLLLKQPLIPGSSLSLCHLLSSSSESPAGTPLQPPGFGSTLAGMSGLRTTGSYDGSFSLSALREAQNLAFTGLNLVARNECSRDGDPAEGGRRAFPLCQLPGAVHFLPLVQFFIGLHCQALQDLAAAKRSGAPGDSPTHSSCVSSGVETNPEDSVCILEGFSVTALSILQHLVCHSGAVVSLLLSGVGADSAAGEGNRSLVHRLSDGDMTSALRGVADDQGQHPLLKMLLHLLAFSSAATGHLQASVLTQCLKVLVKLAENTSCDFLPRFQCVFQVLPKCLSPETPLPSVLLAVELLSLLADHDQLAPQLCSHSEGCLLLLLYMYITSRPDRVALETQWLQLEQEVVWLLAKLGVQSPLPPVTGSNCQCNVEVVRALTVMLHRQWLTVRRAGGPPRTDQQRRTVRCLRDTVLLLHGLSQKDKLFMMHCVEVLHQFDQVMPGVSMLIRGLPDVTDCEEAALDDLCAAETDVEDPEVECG

Usually AUC stands for the area under the concentration-time curve, a measure of exposure. As a reminder, the Cmax is the peak of the concentration-time curve. As usually defined, the Tmax is the time at which the peak concentration occurs. Regarding `Cc1nn(-c2cncc(F)c2)c(C)c1-c1cc(N2CCOC[C@H]2C)nc(-c2cc(F)cc3[nH]ccc23)n1` [Compound A11], the results for the IC50 in series [1], in [2] and in series [4] were 0.214 µM, 0.291 µM and 10 nM, respectively. Further, in series [3], the area under the curve (AUC) came out at 15200 ng·h/mL. The Cmax in series [3] turned out to be 1470 ng/mL. The time of peak concentration (Tmax) in [3] was found to be 3.3 h. Further, the values for the half-life in series [3], in series [5] and in series [6] were 3 h, 2.23 h and 0.733 h, respectively.
Take `Cc1nn(-c2cncc(F)c2)c(C)c1-c1cc(N2CCOC[C@H]2C)nc(-c2cccc3[nH]ccc23)n1` [Compound A17]: the IC50 in [1] worked out at 0.19 µM; in [2], 0.196 µM; in series [4], 5 nM. In series [3], this compound registered an AUC of 8210 ng·h/mL. The compound further had a Cmax in series [3] of 815 ng/mL. Also, the Tmax in series [3] came out at 1.75 h. Moreover, the half-life in series [3] is 2.3 h; in series [5], 1.02 h; in series [6], 1.08 h.
In the case of `Cc1nn(-c2cncc(F)c2)c(C)c1-c1cc(N2CCOC[C@H]2C)nc(-c2ccnc3[nH]ccc23)n1` [Compound A19], the IC50 in series [1] was 0.312 µM. The IC50 in [2] was 0.237 µM. Besides, in series [3], the area under the curve (AUC) turned out to be 1730 ng·h/mL, the peak concentration (Cmax) was 331 ng/mL, the Tmax came to 1 h and the half-life is 2.4 h. This compound also returned an IC50 in series [4] of 2 nM.
For `Cc1nn(-c2cncc(F)c2)c(C)c1-c1cc(N2CCOC[C@H]2C)nc(-c2cc(CO)cc3[nH]ccc23)n1` [Compound A22], the IC50 in [1] is 0.169 µM; in series [7], 1160 nM; in series [2], 0.457 µM; in [8], 2590 nM; in series [4], 5 nM; in [9] it was 284 nM. In addition, the AUC in series [3] came to 1200 ng·h/mL. In series [3], the highest concentration (Cmax) was 865 ng/mL. In addition, the time to peak (Tmax) in [3] was 0.33 h. This compound also showed a half-life in series [3] of 1.4 h.
Regarding `CNc1nc2ccccc2n1-c1nc(-c2c(C)nn(-c3cncc(F)c3)c2C)cc(N2CCOC[C@H]2C)n1` [Compound B1], the IC50 in [1] was 0.231 µM. Further, the IC50 in [2] worked out at 0.194 µM. Also, in [3], the AUC is 8750 ng·h/mL, the Cmax is 1450 ng/mL, the Tmax was found to be 2.8 h and the half-life is 4.3 h. This compound returned an IC50 in [4] of 11 nM.
As to `Cc1nn(-c2cncc(F)c2)c(C)c1-c1cc(C23CCOCC2C3)nc(-c2cccc3[nH]ccc23)n1` (stereo not drawn) [Compound C3], the IC50 in series [1] was determined as 0.632 µM; in series [2], 0.667 µM; in [4], 16 nM.
